Target: HSP90 (Homo sapiens, UniProt P07900)
Experiment: HSP90 inhibition (HSP90 IC50)
Type: biochemical

SMILES: NC(=O)c1ccc(C(=O)N[C@H]2C[C@H]3CC[C@@H](C2)N3c2ccc(C(=O)CCN3CCOCC3)cn2)cc1NCC1CC1 [2-[(cyclopropylmethyl)amino]-N4-{8-[5-(3-morpholin-4-ylpropanoyl)pyridin-2-yl]-8-azabicyclo[3.2.1]oct-3-endo-yl}benzene-1,4-dicarboxamide]
- IC50: < 0.5 µM

SMILES: NC(=O)c1ccc(C(=O)N[C@H]2C[C@H]3CC[C@@H](C2)N3c2ccc(C(=O)CCc3ccccc3)cn2)cc1NCC1CC1 [2-[(cyclopropylmethyl)amino]-N4-{8-[5-(3-phenylpropanoyl)pyridin-2-yl]-8-azabicyclo[3.2.1]oct-3-endo-yl}benzene-1,4-dicarboxamide]
- IC50: 2 to 10 µM

SMILES: NC(=O)c1ccc(C(=O)N[C@H]2C[C@H]3CC[C@@H](C2)N3c2ccc(C(=O)CCC3CCNCC3)cn2)cc1NCC1CC1 [2-[(cyclopropylmethyl)amino]-N4-{8-[5-(3-piperidin-4-ylpropanoyl)pyridin-2-yl]-8-azabicyclo[3.2.1]oct-3-endo-yl}benzene-1,4-dicarboxamide]
- IC50: < 0.5 µM

SMILES: NC(=O)c1ccc(C(=O)N[C@H]2C[C@H]3CC[C@@H](C2)N3c2ccc(C(=O)CCN3CCCC3)cn2)cc1NCC1CC1 [2-[(cyclopropylmethyl)amino]-N4-{8-[5-(3-pyrrolidin-1-ylpropanoyl)pyridin-2-yl]-8-azabicyclo[3.2.1]oct-3-endo-yl}benzene-1,4-dicarboxamide]
- IC50: < 0.5 µM

SMILES: NC(=O)c1ccc(C(=O)N[C@H]2C[C@H]3CC[C@@H](C2)N3c2ccc(C(=O)CCC(F)(F)F)cn2)cc1NCC1CC1 [2-[(cyclopropylmethyl)amino]-N4-{8-[5-(4,4,4-trifluorobutanoyl)pyridin-2-yl]-8-azabicyclo[3.2.1]oct-3-endo-yl}benzene-1,4-dicarboxamide]
- IC50: 2 to 10 µM

SMILES: CC(C)CCC(=O)c1ccc(N2[C@@H]3CC[C@H]2C[C@@H](NC(=O)c2ccc(C(N)=O)c(NCC4CC4)c2)C3)nc1 [2-[(cyclopropylmethyl)amino]-N4-{8-[5-(4-methylpentanoyl)pyridin-2-yl]-8-azabicyclo[3.2.1]oct-3-endo-yl}benzene-1,4-dicarboxamide]
- IC50: < 0.5 µM

SMILES: CN(C)CCC(=O)c1ccc(N2[C@@H]3CC[C@H]2C[C@@H](NC(=O)c2ccc(C(N)=O)c(NCC4CC4)c2)C3)nc1 [2-[(cyclopropylmethyl)amino]-N4-{8-[5-(N,N-dimethyl-beta-alanyl)pyridin-2-yl]-8-azabicyclo[3.2.1]oct-3-endo-yl}benzene-1,4-dicarboxamide]
- IC50: < 0.5 µM

SMILES: NC(=O)c1ccc(C(=O)N[C@H]2C[C@H]3CC[C@@H](C2)N3c2ccc(C(=O)CN3CCCCC3)cn2)cc1NCC1CC1 [2-[(cyclopropylmethyl)amino]-N4-{8-[5-(piperidin-1-ylacetyl)pyridin-2-yl]-8-azabicyclo[3.2.1]oct-3-endo-yl}benzene-1,4-dicarboxamide]
- IC50: 2 to 10 µM

SMILES: NC(=O)c1ccc(C(=O)N[C@H]2C[C@H]3CC[C@@H](C2)N3c2ccc(C(=O)C(F)(F)F)cn2)cc1NCC1CC1 [2-[(cyclopropylmethyl)amino]-N4-{8-[5-(trifluoroacetyl)pyridin-2-yl]-8-azabicyclo[3.2.1]oct-3-endo-yl}benzene-1,4-dicarboxamide]
- IC50: 2 to 10 µM

SMILES: NC(=O)c1cc(Br)c(C(=O)N[C@H]2C[C@H]3CC[C@@H](C2)N3c2ccc(C(=O)C3CC3)cn2)cc1NC1CCC1 [2-bromo-5-(cyclobutylamino)-N-{8-[5-(cyclopropylcarbonyl)pyridin-2-yl]-8-azabicyclo[3.2.1]oct-3-endo-yl}benzene-1,4-dicarboxamide]
- IC50: < 0.5 µM

SMILES: NC(=O)c1cc(Br)c(C(=O)N[C@H]2C[C@H]3CC[C@@H](C2)N3c2ccc(C(=O)C3CC3)cn2)cc1NC1CCCC1 [2-bromo-5-(cyclopentylamino)-N-{8-[5-(cyclopropylcarbonyl)pyridin-2-yl]-8-azabicyclo[3.2.1]oct-3-endo-yl}benzene-1,4-dicarboxamide]
- IC50: < 0.5 µM

SMILES: CC(C)Nc1cc(C(=O)N[C@H]2C[C@H]3CC[C@@H](C2)N3c2ccc(C(=O)C3CC3)cn2)c(Br)cc1C(N)=O [2-bromo-N-{8-(5-(cyclopropylcarbonyl)pyridin-2-yl]-8-azabicyclo[3.2.1]oct-3-endo-yl}-5-[(1-methylethyl)amino]benzene-1,4-dicarboxamide]
- IC50: < 0.5 µM

SMILES: CCCNc1cc(C(=O)N[C@H]2C[C@H]3CC[C@@H](C2)N3c2ccc(C(=O)C3CC3)cn2)c(Br)cc1C(N)=O [2-bromo-N-{8-[5-(cyclopropylcarbonyl)pyridin-2-yl]-8-azabicyclo[3.2.1]oct-3-endo-yl}-5-(propylamino)benzene-1,4-dicarboxamide]
- IC50: < 0.5 µM

SMILES: CC(C)(C)Nc1cc(C(=O)N[C@H]2C[C@H]3CC[C@@H](C2)N3c2ccc(C(=O)C3CC3)cn2)c(Br)cc1C(N)=O [2-bromo-N-{8-[5-(cyclopropylcarbonyl)pyridin-2-yl]-8-azabicyclo[3.2.1]oct-3-endo-yl}-5-[(1,1-dimethylethyl)amino]benzene-1,4-dicarboxamide]
- IC50: < 0.5 µM

SMILES: CCC(CC)Nc1cc(C(=O)N[C@H]2C[C@H]3CC[C@@H](C2)N3c2ccc(C(=O)C3CC3)cn2)c(Br)cc1C(N)=O [2-bromo-N-{8-[5-(cyclopropylcarbonyl)pyridin-2-yl]-8-azabicyclo[3.2.1]oct-3-endo-yl}-5-[(1-ethylpropyl)amino]benzene-1,4-dicarboxamide]
- IC50: < 0.5 µM

SMILES: CC(C)(C)CNc1cc(C(=O)N[C@H]2C[C@H]3CC[C@@H](C2)N3c2ccc(C(=O)C3CC3)cn2)c(Br)cc1C(N)=O [2-bromo-N-{8-[5-(cyclopropylcarbonyl)pyridin-2-yl]-8-azabicyclo[3.2.1]oct-3-endo-yl}-5-[(2,2-dimethylpropyl)amino]benzene-1,4-dicarboxamide]
- IC50: < 0.5 µM

SMILES: CC(C)CNc1cc(C(=O)N[C@H]2C[C@H]3CC[C@@H](C2)N3c2ccc(C(=O)C3CC3)cn2)c(Br)cc1C(N)=O [2-bromo-N-{8-[5-(cyclopropylcarbonyl)pyridin-2-yl]-8-azabicyclo[3.2.1]oct-3-endo-yl}-5-[(2-methylpropyl)amino]benzene-1,4-dicarboxamide]
- IC50: < 0.5 µM

SMILES: NC(=O)c1cc(Br)c(C(=O)N[C@H]2C[C@H]3CC[C@@H](C2)N3c2ccc(C(=O)C3CC3)cn2)cc1NCCC(F)(F)F [2-bromo-N-{8-[5-(cyclopropylcarbonyl)pyridin-2-yl]-8-azabicyclo[3.2.1]oct-3-endo-yl}-5-[(3,3,3-trifluoropropyl)amino]benzene-1,4-dicarboxamide]
- IC50: < 0.5 µM

SMILES: NC(=O)c1cc(Br)c(C(=O)N[C@H]2C[C@H]3CC[C@@H](C2)N3c2ccc(C(=O)C3CC3)cn2)cc1NCC1CC1 [2-bromo-N-{8-[5-(cyclopropylcarbonyl)pyridin-2-yl]-8-azabicyclo[3.2.1]oct-3-endo-yl}-5-[(cyclopropylmethyl)amino]benzene-1,4-dicarboxamide]
- IC50: < 0.5 µM

SMILES: CC(C)[C@@H](C)Nc1cc(C(=O)NC2CC3CCC(C2)N3c2ccc(C(=O)C3CC3)cn2)c(Br)cc1C(N)=O (stereo partly drawn) [2-bromo-N-{8-[5-(cyclopropylcarbonyl)pyridin-2-yl]-8-azabicyclo[3.2.1]oct-3-endo-yl}-5-{[(1R)-1 2-dimethylpropyl]amino}benzene-1,4-dicarboxamide]
- IC50: < 0.5 µM

SMILES: CC[C@@H](C)Nc1cc(C(=O)NC2CC3CCC(C2)N3c2ccc(C(=O)C3CC3)cn2)c(Br)cc1C(N)=O (stereo partly drawn) [2-bromo-N-{8-[5-(cyclopropylcarbonyl)pyridin-2-yl]-8-azabicyclo[3.2.1]oct-3-endo-yl}-5-{[(1R)-1-methylpropyl]amino}benzene-1,4-dicarboxamide]
- IC50: < 0.5 µM

SMILES: CC(C)[C@H](C)Nc1cc(C(=O)NC2CC3CCC(C2)N3c2ccc(C(=O)C3CC3)cn2)c(Br)cc1C(N)=O (stereo partly drawn) [2-bromo-N-{8-[5-(cyclopropylcarbonyl)pyridin-2-yl]-8-azabicyclo[3.2.1]oct-3-endo-yl}-5-{[(1S)-1,2-dimethylpropyl]amino}benzene-1,4-dicarboxamide]
- IC50: < 0.5 µM

SMILES: CC(Nc1c(C(N)=O)ccc(C(=O)N[C@H]2C[C@H]3CC[C@@H](C2)N3c2ccc(C(=O)C3CC3)cn2)c1Cl)C1CC1 (stereo partly drawn) [2-chloro-N-{8-[5-(cyclopropylcarbonyl)pyridin-2-yl]-8-azabicyclo[3.2.1]oct-3-endo-yl}-3-[(1-cyclopropylethyl)amino]benzene-1,4-dicarboxamide]
- IC50: < 0.5 µM

SMILES: CCC(CC)Nc1cc(C(=O)N[C@H]2C[C@H]3CC[C@@H](C2)N3c2ccc(C(=O)C3CC3)cn2)c(Cl)cc1C(N)=O [2-chloro-N-{8-[5-(cyclopropylcarbonyl)pyridin-2-yl]-8-azabicyclo[3.2.1]oct-3-endo-yl}-5-[(1-ethylpropyl)amino]benzene-1,4-dicarboxamide]
- IC50: < 0.5 µM

SMILES: COc1c(C(N)=O)ccc(C(=O)NC2CC3CCC(C2)N3c2ccc(C(=O)N[C@@H](C)c3ccc(N4CCN(C)CC4)cc3)cn2)c1C (stereo partly drawn) [2-methyl-3-(methyloxy)-N-(8-{5-[({(1S)-1-[4-(4-methylpiperazin-1-yl)phenyl]ethyl}amino)carbonyl]pyridin-2-yl}-8-azabicyclo[3.2.1]oct-3-endo-yl)benzene-1,4-dicarboxamide]
- IC50: < 0.5 µM

SMILES: Cc1c(OC(N)=O)cccc1C(=O)N[C@H]1C[C@H]2CC[C@@H](C1)N2c1ccc(C(=O)NCc2ccccc2)cn1 [2-methyl-3-({[8-(5-{[(phenylmethyl)amino]carbonyl}pyridin-2-yl)-8-azabicyclo[3.2.1]oct-3-endo-yl]amino}carbonyl)phenyl carbamate]
- IC50: 2 to 10 µM

SMILES: Cc1cc(C(N)=O)ccc1C(=O)N[C@H]1C[C@H]2CC[C@@H](C1)N2c1ccc(C(=O)NCc2ccccc2)cn1 [2-methyl-N 1-[8-(5-{[(phenylmethyl)amino]carbonyl}pyridin-2-yl)-8-azabicyclo[3.2.1]oct-3-endo-yl]benzene-1,4-dicarboxamide]
- IC50: 0.5 to 0.999 µM

SMILES: Cc1c(C(N)=O)cccc1C(=O)N[C@H]1C[C@H]2CC[C@@H](C1)N2c1ccc(C(=O)NCc2ccccc2)cn1 [2-methyl-N-[8-(5-{[(phenylmethyl)amino]carbonyl}pyridin-2-yl)-8-azabicyclo[3.2.1]oct-3-endo-yl]benzene-1,3-dicarboxamide]
- IC50: 2 to 10 µM

SMILES: CCNc1c(C)c(C(=O)NC2CC3CCC(C2)N3c2ccc(C(=O)N[C@@H](C)c3ccc(N4CCN(C)CC4)cc3)cn2)cc(C)c1C(N)=O (stereo partly drawn) [3-(ethylamino)-2,5-dimethyl-N1-(8-{5-[({(1S)-1-[4-(4-methylpiperazin-1-yl)phenyl]ethyl}amino)carbonyl]pyridin-2-yl}-8-azabicyclo[3.2.1]oct-3-endo-yl)benzene-1,4-dicarboxamide]
- IC50: 2 to 10 µM

From US8012956B2, “Tropane compounds” (Exelixis, Inc., priority 2007, dated 2011)
